{"source": "patent US20240245783A1", "about": "“METALLO-BETA-LACTAMASE INHIBITOR” (priority 2021, published 2024)", "key": {"[1]": {"test_system": "E. coli clinical isolate expressing IMP-1", "assay": "Meropenem MIC against E. coli clinical isolate expressing IMP-1 (Test Example 10)", "assay_type": "cell-based", "procedure": "The enhancing effect of DTPA-ADCA on the susceptibility of E. coli clinical isolate expressing IMP-1 to a carbapenem antibacterial agent (meropenem) was evaluated by the following method. The E. coli clinical isolate was cultured overnight with shaking in LB medium. The bacterial solution was diluted to 1/1000 with LB medium, used as a test bacterial solution, and then seeded in a 96-well plate. Meropenem (Wako Pure Chemical Industries, Ltd.) was added to the bacterial solution, thereby performing two-step dilution from a maximum of 10 μg/ml. The bacteria were cultured in an incubator at 37° C. for one day, and growth at that time was measured by turbidity (655 nm). The meropenem concentration at which no bacterial growth had been observed was defined as the minimum inhibitory concentration.\nThe effect of DTPA-ADCA on the susceptibility of an E. coli clinical isolate to meropenem was evaluated by the following method. The E. coli clinical isolate was cultured overnight with shaking in LB medium. The bacterial solution was diluted to 1/1000 with LB medium, used as the test bacterial solution, and then seeded in a 96-well plate. Meropenem (Wako Pure Chemical Industries, Ltd.) was added to this bacterial solution in the range of 0.1 μg/ml to 0.005 μg/ml. Here, DTPA or DTPA-ADCA was used in combination therewith at a concentration of […], and the effect on bacterial growth was examined. The bacteria were cultured in an incubator at 37° C. for one day, and the growth at that time was measured by turbidity (655 nm).\nFIG. 20 depicts the results. Multidrug-resistant E. coli was cultured with compounds having the indicated concentrations and the bacterial load was assessed by turbidity after 24 hours. […] Combined use of DTPA-ADCA (20 μM) reduced the minimum inhibitory concentration of meropenem to […] and enhanced the antibacterial activity by 100 times."}, "[2]": {"biological_target": "T1, recombinant metallo-β-lactamase (recombinant IMP-1) (Serratia marcescens, UniProt P52699)", "T1 construct": "made in house; host or cells: E. coli BL21(DE3), vector pET29a", "T1 sequence (P52699 19-246 limits assumed)": "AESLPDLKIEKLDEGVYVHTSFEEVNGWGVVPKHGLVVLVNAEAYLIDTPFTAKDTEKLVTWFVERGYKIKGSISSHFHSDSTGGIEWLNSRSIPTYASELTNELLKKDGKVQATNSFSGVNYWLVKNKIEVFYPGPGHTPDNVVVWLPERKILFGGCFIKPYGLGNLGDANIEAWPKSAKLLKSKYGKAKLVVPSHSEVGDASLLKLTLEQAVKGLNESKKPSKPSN", "assay": "Inhibition of meropenem degradation by recombinant IMP-1 (Test Example 1)", "assay_type": "biochemical", "settings": "compound at 1, 5, and 10 μM; 100 μM meropenem; 1 hour at 37° C.; tandem mass spectrometry", "procedure": "Based on the description of NON PATENT LITERATURE 5, a recombinant metallo-β-lactamase (recombinant IMP-1) was prepared. “NG_049172” of Database: RefSeq as the IMP-1 gene was incorporated into vector pET29a (Novagen), and then expressed in E. coli BL21(DE3) (Invitrogen).\nRecombinant IMP-1 was dissolved in a 50 mM sodium phosphate buffer (pH 7.6) at a concentration of 0.25 μg/ml. Furthermore, zinc chloride was added to the solution in such a manner that the concentration was 0.1 μM. The resultant in this state was subjected to preincubation at 37° C. for 10 minutes. […] After 1 hour of incubation at 37° C. residual meropenem was quantified by tandem mass spectrometry. Meropenem was quantified by a multiple reaction monitoring method. […]\nReverse phase column: YMC-Triat C18 Plus column (2.1×50 mm); column temperature: 45° C.; mobile phase (2 liquids): mobile phase A (0.1% formic acid aqueous solution), mobile phase B (acetonitrile); gradient: increase from 1% B to 80% B for 10 minutes, keep it at 80% B for 0.5 minutes, and then return it to 1% B over 1 minute. […] Detection: multiple reaction monitoring, parent ion at 384.2, child ion at 68.1; measured in a positive ion mode.\nFIG. 4 depicts a graph showing the results of quantifying the peak area of meropenem detected in FIG. 3. The peak of meropenem alone is expressed as 100%."}, "[3]": {"test_system": "IMP-1-expressing E. coli", "assay": "Susceptibility of IMP-1-expressing E. coli to meropenem (Test Example 5)", "assay_type": "cell-based", "settings": "compound at 25 μM; meropenem diluted from 2 μM; turbidity 655 nm after one day", "procedure": "Based on the description of NON PATENT LITERATURE 5, IMP-1-expressing E. coli was prepared.\nThe effects of DTPA-cefalexin and NOTA-cefalexin on the susceptibility of IMP-1-expressing E. coli to a carbapenem antibacterial agent (meropenem) were evaluated by the following method. The IMP-1-expressing E. coli was cultured overnight with shaking in LB medium containing 100 μg/ml ampicillin. The bacterial solution was diluted to 1/200 with LB medium, used as a test bacterial solution, and then seeded in a 96-well plate. Meropenem (Wako Pure Chemical Industries, Ltd.) was added to the bacterial solution, thereby performing two-step dilution from a maximum of 2 μM. The bacteria were cultured in an incubator at 37° C. for one day, and the growth at that time was measured by turbidity (655 nm). FIGS. 8 and 9 depict the results.\nFIG. 8 depicts the susceptibility to meropenem when DTPA-cefalexin was added at 25 μM, or EDTA or DTPA was added at 25 μM. FIG. 9 depicts susceptibility to meropenem when NOTA-cefalexin was added at 25 μM. Those denoted as “control” in the figure show the results of adding only meropenem."}, "[4]": {"test_system": "IMP-1-expressing Klebsiella pneumoniae", "assay": "Survival of Leukopenia mice infected with IMP-1-expressing Klebsiella pneumoniae (Test Example 6)", "assay_type": "in vivo", "settings": "meropenem 10 mg/kg and compound 1 50 mg/kg subcutaneously 30 min after infection; 48 hours; Leukopenia ddY mice", "procedure": "DTPA-conjugated cefalexin (compound 1)'s effect of enhancing the drug susceptibility of pathogenic bacteria was examined by an in vivo experiment using bacteria-infected mice. To prepare a compromised Leukopenia mouse model, 0.1 mL of cyclophosphamide monohydrate (Sigma-Aldrich) prepared with PBS was administered intraperitoneally to 4-week-old male ddY mice (Japan SLC) at 250 mg/kg at 4 days before infection. IMP-1-expressing Klebsiella pneumoniae used herein was a clinical isolate provided by Kumamoto University Hospital. The bacteria were cultured overnight with shaking in LB medium at 37° C., then diluted 50-fold with LB medium, and further cultured with shaking, so that the turbidity (600 nm) was 1.5 or higher. The bacteria were centrifuged to remove the medium, washed twice with PBS, and then diluted with PBS to 5×10^5 CFU/mL. In the mouse infection experiment, each Leukopenia mouse was infected with 0.1 mL (5×10^4 CFU) of IMP-1-expressing Klebsiella pneumoniae by intraperitoneal injection. Thirty minutes after infection, 0.1 mL of a mixed solution containing meropenem (Wako Pure Chemical Industries, Ltd.) and compound 1 (DTPA-CEF) was subcutaneously administered to each mouse of a treatment mouse group at 10 mg/kg and 50 mg/kg, respectively. […] Forty-eight hours after infection, mice were assessed for viability. […]"}, "[5]": {"settings": "combined use of DTPA-ADCA (20 μM)"}}, "data": [{"smiles": "O=C(O)CN(CCN(CC(=O)O)CC(=O)O)CCN(CC(=O)O)CC(=O)O", "note": "[DTPA, reference compound]", "values": [{"measurement": "effect on the minimum inhibitory concentration of meropenem", "setting": "[1]; DTPA used in combination with meropenem", "value": "had no such effect"}]}, {"smiles": "CC1=C(C(=O)O)N2C(=O)[C@@H](NC(=O)C(NC(=O)CN(CCN(CCN(CC(=O)O)CC(=O)O)CC(=O)O)CC(=O)O)c3ccccc3)[C@H]2SC1", "note": "(stereo partly shown) [compound 1, DTPA-conjugated cefalexin]", "values": [{"measurement": "inhibition of meropenem degradation by IMP-1 (residual meropenem)", "setting": "[2]", "value": "inhibited the degradation of meropenem"}, {"measurement": "effect on susceptibility of IMP-1-expressing E. coli to meropenem", "setting": "[3]", "value": "metallo-β-lactamase-expressing bacteria are killed by the effect of the carbapenem antibacterial agent"}, {"measurement": "percent survival", "setting": "[4]", "value": 50, "unit": "%"}]}, {"smiles": "CC1=C(C(=O)O)N2C(=O)[C@@H](NC(=O)CN(CCN(CCN(CC(=O)O)CC(=O)O)CC(=O)O)CC(=O)O)[C@H]2SC1", "note": "[compound 6, DTPA-conjugated ADCA]", "values": [{"measurement": "enhancement of the antibacterial activity of meropenem", "setting": "[1]; [5]", "value": 100, "unit": "times"}, {"measurement": "minimum inhibitory concentration of meropenem", "setting": "[1]; [5]", "value": 10, "unit": "µg/mL"}]}, {"smiles": "CC1=C(C(=O)O)N2C(=O)[C@@H](NC(=O)[C@H](NC(=O)CN3CCN(CC(=O)O)CCN(CC(=O)O)CC3)c3ccccc3)[C@H]2SC1", "note": "[compound 7, NOTA-Conjugated Cefalexin]", "values": [{"measurement": "effect on susceptibility of IMP-1-expressing E. coli to meropenem", "setting": "[3]", "value": "metallo-β-lactamase-expressing bacteria are killed by the effect of the carbapenem antibacterial agent"}]}]}
